Data from US9783505B2, “Substituted diaminopyrimidyl compounds, compositions thereof, and methods of treatment therewith” (Signal Pharmaceuticals, LLC, priority 2013, dated 2017).

How the values were obtained:
PKC delta = biological target: T1, PKC delta (Homo sapiens, UniProt Q05655); assay: PKC delta Assay (384-well time resolved fluorescence, IMAP TR-FRET); format: biochemical; conditions: selectivity for PKC-theta over PKC-delta
T1 construct: purchased Invitrogen
Protocol: PKC delta Assay. A 384-well time resolved fluorescence assay was used to monitor PKC delta activity. The PKC delta assay was run in the following assay buffer: 50 mM HEPES pH 7.6, 10 mM MgCl2, 1 mM DTT, 0.01% Triton X-100, 0.01% BSA and 0.1 mM EDTA. To initiate the reaction, 200 nM of Fam-labeled S6-derived peptide (Molecular Devices) and 10 μM of ATP were mixed with 1.5 nM of PKC delta (Invitrogen), for a total assay volume of 25 μL in each well. The assay was incubated at room temperature for 2 hours and terminated using a 60 μL/well mixture of Detection Binding Solution: 70% IMAP Progressive Binding Buffer A, 30% IMAP Progressive Binding Buffer B, 1:600 Progressive Binding Reagent, and 1:400 TR-FRET Tb Donor (Molecular Devices). The assay plates were then incubated overnight at room temperature and read on the Perkin-Elmer Envision Reader.

His-PKC-theta = biological target: T2, His-PKC-theta (Homo sapiens, UniProt Q04759); assay: PKC-theta Assay (384-well time resolved fluorescence, IMAP TR-FRET); format: biochemical; conditions: read-out: Act. Level (IC50 in the PKC-theta Assay)
T2 construct: His; purchased Invitrogen
Outline: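 Fam-labeled S6-derived peptide (200 nM) and 10 μM ATP were reacted with 142 pM enzyme for 2 h at room temperature in HEPES pH 7.6 buffer with MgCl2, DTT, Triton X-100, BSA and EDTA. The reaction was stopped with IMAP progressive binding reagent plus Tb donor, incubated overnight, then TR-FRET read.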

T1 sequence (Q05655 whole entry): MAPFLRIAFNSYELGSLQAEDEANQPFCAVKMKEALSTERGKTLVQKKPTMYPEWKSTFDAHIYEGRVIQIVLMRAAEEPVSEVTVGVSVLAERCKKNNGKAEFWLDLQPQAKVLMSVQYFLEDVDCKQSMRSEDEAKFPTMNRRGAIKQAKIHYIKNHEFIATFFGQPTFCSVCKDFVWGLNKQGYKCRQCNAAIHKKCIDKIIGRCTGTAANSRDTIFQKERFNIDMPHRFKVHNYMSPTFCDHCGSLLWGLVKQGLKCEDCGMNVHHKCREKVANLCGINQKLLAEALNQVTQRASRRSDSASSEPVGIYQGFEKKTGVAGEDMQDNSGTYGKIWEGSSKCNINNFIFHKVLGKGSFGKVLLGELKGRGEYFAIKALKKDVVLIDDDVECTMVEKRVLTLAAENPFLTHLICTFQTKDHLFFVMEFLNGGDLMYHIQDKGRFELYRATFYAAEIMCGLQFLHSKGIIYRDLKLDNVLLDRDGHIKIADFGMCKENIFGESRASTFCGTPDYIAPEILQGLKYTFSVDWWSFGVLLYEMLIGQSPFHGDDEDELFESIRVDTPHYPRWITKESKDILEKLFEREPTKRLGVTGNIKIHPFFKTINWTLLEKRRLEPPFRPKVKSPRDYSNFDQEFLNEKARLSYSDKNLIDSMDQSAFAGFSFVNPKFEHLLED
T2 sequence (Q04759 whole entry): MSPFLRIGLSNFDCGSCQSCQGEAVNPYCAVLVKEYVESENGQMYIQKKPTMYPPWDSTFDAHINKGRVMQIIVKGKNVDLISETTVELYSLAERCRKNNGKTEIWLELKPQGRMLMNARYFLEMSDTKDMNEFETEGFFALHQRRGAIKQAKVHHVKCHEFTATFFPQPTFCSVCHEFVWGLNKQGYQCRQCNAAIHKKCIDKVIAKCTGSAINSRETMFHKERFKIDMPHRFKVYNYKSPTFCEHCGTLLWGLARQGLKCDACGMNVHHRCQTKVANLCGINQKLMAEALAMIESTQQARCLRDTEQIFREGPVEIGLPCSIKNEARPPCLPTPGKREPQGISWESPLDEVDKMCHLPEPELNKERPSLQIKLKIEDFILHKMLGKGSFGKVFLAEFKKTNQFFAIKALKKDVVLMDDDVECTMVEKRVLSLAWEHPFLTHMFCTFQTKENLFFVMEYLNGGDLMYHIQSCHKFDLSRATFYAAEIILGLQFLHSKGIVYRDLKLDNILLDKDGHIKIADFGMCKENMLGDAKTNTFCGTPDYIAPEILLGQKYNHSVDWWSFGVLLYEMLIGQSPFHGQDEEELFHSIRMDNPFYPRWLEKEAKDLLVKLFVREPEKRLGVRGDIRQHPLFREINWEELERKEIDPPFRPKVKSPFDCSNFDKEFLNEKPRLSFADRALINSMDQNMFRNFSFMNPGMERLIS

| IC50 (His-PKC-theta) | SMILES | Sel. Level (ratio of IC50 PKC-delta/IC50 PKC-theta) (PKC delta) |
| --- | --- | --- |
| < 100 nM | CCc1ccc2c(c1)C(CCNc1ncc(C#N)c(N[C@@H]3CC[C@H](O)C(C)(C)C3)n1)C(=O)N2 (stereo partly shown) [Cmpd 249] | E (selectivity (Sel. Level=ratio of IC50 PKC-delta/IC50 PKC-theta) of >100-fold (selectivity level E)) |
| 800 to 2000 nM | Cc1cccc(CCNc2ncc(C#N)c(N[C@@H]3CC[C@H](O)C(C)(C)C3)n2)n1 [Cmpd 250] | G (selectivity between 5- and 20-fold (selectivity level G)) |
| 100 to 800 nM | CC1(C)C[C@H](Nc2nc(NCCc3cc4cc(C#N)ccc4[nH]3)ncc2C#N)CC[C@@H]1O [Cmpd 251] | G (selectivity between 5- and 20-fold (selectivity level G)) |
| < 100 nM | CC1(C)C[C@H](Nc2nc(NCCc3c[nH]c4cc(F)ccc34)ncc2C#N)CC[C@@H]1O [Cmpd 252] | E (selectivity (Sel. Level=ratio of IC50 PKC-delta/IC50 PKC-theta) of >100-fold (selectivity level E)) |
| 100 to 800 nM | Cc1[nH]c2cc(Cl)cc(Cl)c2c1CCNc1ncc(C#N)c(N[C@@H]2CC[C@H](O)C(C)(C)C2)n1 [Cmpd 254] | G (selectivity between 5- and 20-fold (selectivity level G)) |
| 800 to 2000 nM | CC1(C)C[C@H](Nc2nc(NCCc3ccc4ccccc4n3)ncc2C#N)CC[C@@H]1O [Cmpd 256] | G (selectivity between 5- and 20-fold (selectivity level G)) |
| 800 to 2000 nM | CCOc1cccc(CCNc2ncc(C#N)c(N[C@@H]3CC[C@H](O)C(C)(C)C3)n2)n1 [Cmpd 257] | G (selectivity between 5- and 20-fold (selectivity level G)) |
| < 100 nM | CC1(C)[C@@H](O)C[C@H]1Nc1nc(NCCC2C(=O)Nc3ccccc32)ncc1C#N (stereo partly shown) [Cmpd 259] | E (selectivity (Sel. Level=ratio of IC50 PKC-delta/IC50 PKC-theta) of >100-fold (selectivity level E)) |
| < 100 nM | Cc1cccc2c1NC(=O)C2CCNc1ncc(C#N)c(N[C@@H]2C[C@H](O)C2(C)C)n1 (stereo partly shown) [Cmpd 260] | F (selectivity of between 20- and 100-fold (selectivity level F)) |
| 100 to 800 nM | CC1(C)[C@@H](O)C[C@H]1Nc1nc(NCCc2cc3cc(C#N)ccc3[nH]2)ncc1C#N [Cmpd 264] | G (selectivity between 5- and 20-fold (selectivity level G)) |
| 2000 to 10000 nM | CNS(=O)(=O)Cc1ccc2[nH]cc(CCNc3ncc(C#N)c(N[C@@H]4C[C@H](O)C4(C)C)n3)c2c1 [Cmpd 266] | H (selectivity level of 5-fold or less (selectivity level H)) |
| 800 to 2000 nM | CCOc1cccc(CCNc2ncc(C#N)c(N[C@@H]3C[C@H](O)C3(C)C)n2)n1 [Cmpd 267] | G (selectivity between 5- and 20-fold (selectivity level G)) |
| 800 to 2000 nM | CC1(C)[C@@H](O)C[C@H]1Nc1nc(NCCc2cncc(C(F)(F)F)c2)ncc1C#N [Cmpd 274] | G (selectivity between 5- and 20-fold (selectivity level G)) |
| 2000 to 10000 nM | CC1(C)C[C@H](Nc2nc(NCCc3ccncn3)ncc2C#N)CC[C@@H]1O [Cmpd 278] | H (selectivity level of 5-fold or less (selectivity level H)) |
| 100 to 800 nM | CC1(C)C[C@H](Nc2nc(NCCc3ccncc3)ncc2C#N)CC[C@@H]1O [Cmpd 280] | G (selectivity between 5- and 20-fold (selectivity level G)) |
| 800 to 2000 nM | CC1(C)C[C@H](Nc2nc(NCCc3cccnc3)ncc2C#N)CC[C@@H]1O [Cmpd 281] | G (selectivity between 5- and 20-fold (selectivity level G)) |
| 2000 to 10000 nM | CC1(C)C[C@H](Nc2nc(NCCc3ccccn3)ncc2C#N)CC[C@@H]1O [Cmpd 282] | H (selectivity level of 5-fold or less (selectivity level H)) |

More lines, now with the values behind:

| SMILES | IC50 (His-PKC-theta) | Sel. Level (ratio of IC50 PKC-delta/IC50 PKC-theta) (PKC delta) |
| --- | --- | --- |
| CC1(C)[C@@H](O)C[C@H]1Nc1nc(NCCn2cccc2)ncc1C#N [Cmpd 238] | 100 to 800 nM | G (selectivity between 5- and 20-fold (selectivity level G)) |
| CC1(C)[C@@H](O)C[C@H]1Nc1nc(NCCn2ccc3ccccc32)ncc1C#N [Cmpd 239] | 2000 to 10000 nM | H (selectivity level of 5-fold or less (selectivity level H)) |
| CC1(C)[C@@H](O)C[C@H]1Nc1nc(NCCc2c[nH]c3ccccc23)ncc1C#N [Cmpd 240] | < 100 nM | G (selectivity between 5- and 20-fold (selectivity level G)) |
| CC1(C)[C@@H](O)C[C@H]1Nc1nc(NCCc2c[nH]c3ncccc23)ncc1C#N [Cmpd 241] | 800 to 2000 nM | G (selectivity between 5- and 20-fold (selectivity level G)) |
| CC1(C)[C@@H](O)C[C@H]1Nc1nc(NCCc2nc3ccccc3o2)ncc1C#N [Cmpd 242] | 2000 to 10000 nM | H (selectivity level of 5-fold or less (selectivity level H)) |
| Cc1cc2ccccc2n1CCNc1ncc(C#N)c(N[C@@H]2C[C@H](O)C2(C)C)n1 [Cmpd 243] | 800 to 2000 nM | G (selectivity between 5- and 20-fold (selectivity level G)) |
| CC1(C)[C@@H](O)C[C@H]1Nc1nc(NCCc2cn[nH]c2)ncc1C#N [Cmpd 244] | 100 to 800 nM | G (selectivity between 5- and 20-fold (selectivity level G)) |
| CC1(C)[C@@H](O)C[C@H]1Nc1nc(NCCc2ccn[nH]2)ncc1C#N [Cmpd 245] | 800 to 2000 nM | G (selectivity between 5- and 20-fold (selectivity level G)) |
| CC1(C)[C@@H](O)C[C@H]1Nc1nc(NCCc2cnoc2)ncc1C#N [Cmpd 246] | 2000 to 10000 nM | H (selectivity level of 5-fold or less (selectivity level H)) |
| Cc1cccc2c1NC(=O)C2CCNc1ncc(C#N)c(N[C@@H]2CC[C@H](O)C(C)(C)C2)n1 (stereo partly shown) [Cmpd 248] | < 100 nM | F (selectivity of between 20- and 100-fold (selectivity level F)) |
| CC1(C)C[C@H](Nc2nc(NCCc3ccc(OCC(F)(F)F)nc3)ncc2C#N)CC[C@@H]1O [Cmpd 253] | 100 to 800 nM | F (selectivity of between 20- and 100-fold (selectivity level F)) |
| CC1(C)CC(Nc2nc(NCCc3c[nH]c4cccnc34)ncc2C#N)CC[C@@H]1O (stereo partly shown) [Cmpd 255] | 2000 to 10000 nM | H (selectivity level of 5-fold or less (selectivity level H)) |
| Cc1ncccc1CCNc1ncc(C#N)c(N[C@@H]2CC[C@H](O)C(C)(C)C2)n1 [Cmpd 258] | 100 to 800 nM | F (selectivity of between 20- and 100-fold (selectivity level F)) |
| Cc1cccc(CCNc2ncc(C#N)c(N[C@@H]3C[C@H](O)C3(C)C)n2)n1 [Cmpd 262] | 2000 to 10000 nM | H (selectivity level of 5-fold or less (selectivity level H)) |
| CC1(C)[C@@H](O)C[C@H]1Nc1nc(NCCC2CNc3cc(Cl)ccc32)ncc1C#N (stereo partly shown) [Cmpd 263] | 100 to 800 nM | G (selectivity between 5- and 20-fold (selectivity level G)) |
| CC1(C)[C@@H](O)C[C@H]1Nc1nc(NCCc2c[nH]c3cc(F)ccc23)ncc1C#N [Cmpd 265] | 100 to 800 nM | G (selectivity between 5- and 20-fold (selectivity level G)) |
| Cc1cnccc1CCNc1ncc(C#N)c(N[C@@H]2C[C@H](O)C2(C)C)n1 [Cmpd 268] | 800 to 2000 nM | G (selectivity between 5- and 20-fold (selectivity level G)) |
| CC1(C)C[C@H](Nc2nc(NCCc3cncc(C(F)(F)F)c3)ncc2C#N)CC[C@@H]1O [Cmpd 271] | 800 to 2000 nM | G (selectivity between 5- and 20-fold (selectivity level G)) |
| CC1(C)C[C@H](Nc2nc(NCCc3ccnc(C(F)(F)F)c3)ncc2C#N)CC[C@@H]1O [Cmpd 272] | 100 to 800 nM | G (selectivity between 5- and 20-fold (selectivity level G)) |
| CC1(C)[C@@H](O)C[C@H]1Nc1nc(NCCc2ccnc(C(F)(F)F)c2)ncc1C#N [Cmpd 273] | 800 to 2000 nM | G (selectivity between 5- and 20-fold (selectivity level G)) |
| CC1(C)C[C@H](Nc2nc(NCCc3cc(Cl)c[n+]([O-])c3)ncc2C#N)CC[C@@H]1O [Cmpd 275] | 800 to 2000 nM | G (selectivity between 5- and 20-fold (selectivity level G)) |
| CC1(C)C[C@H](Nc2nc(NCCc3cncc(Cl)c3)ncc2C#N)CC[C@@H]1O [Cmpd 276] | 100 to 800 nM | F (selectivity of between 20- and 100-fold (selectivity level F)) |
| CC1(C)C[C@H](Nc2nc(NCCc3cncnc3)ncc2C#N)CC[C@@H]1O [Cmpd 277] | 2000 to 10000 nM | H (selectivity level of 5-fold or less (selectivity level H)) |
| CC1(C)C[C@H](Nc2nc(NCCc3cnccn3)ncc2C#N)CC[C@@H]1O [Cmpd 279] | 2000 to 10000 nM | H (selectivity level of 5-fold or less (selectivity level H)) |
